The source of these data is PubChem BioAssay (NCI).

Structures are written as SMILES.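 Growth conditions: 96-well plates. Treatment: test compound, 48 hours, 5 concentrations. Analysis: linear interpolation between bracketing concentrations; unreached endpoints set to highest concentration. Definition used: TGI = concentration required for complete inhibition of growth.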

Among the test systems are DU-145 prostate; HCC-2998 colon; HOP-92 NSCLC; HS 578T breast; HT29 colon; K-562 leukemia; MCF7 breast; MDA-MB-231 breast; OVCAR-3 ovarian; OVCAR-5 ovarian; OVCAR-8 ovarian; PC-3 prostate; SF-268 CNS; SF-295 CNS; SK-MEL-2 melanoma; SK-MEL-28 melanoma; SK-MEL-5 melanoma; SN12C renal; T-47D breast; UACC-257 melanoma.
Common to all, as to test: NCI tumour cell line growth inhibition, 48 h

Regarding `C=C1C(=O)O[C@H]2[C@H]3O[C@@H](C[C@@H]12)[C@](C)(O)CCCC(C)=CCC[C@H]3C`, the TGI stood at 39.6 µM in the assay on DU-145 prostate; 23.6 µM in the assay with HCC-2998 colon; 8.45 µM with HOP-92 NSCLC; 29.2 µM in the assay with HS 578T breast; 26.7 µM with HT29 colon; 64.7 µM with K-562 leukemia. Besides, the TGI with MCF7 breast is 29.8 µM; with MDA-MB-231 breast it was 35.8 µM; with OVCAR-3 ovarian, 27.5 µM; in the assay on OVCAR-5 ovarian, 31.1 µM; with OVCAR-8 ovarian it was 21 µM; in the assay with PC-3 prostate, 25.7 µM. Also, the TGI in the assay with SF-268 CNS came to 20.7 µM; with SF-295 CNS it was 31.7 µM; in the assay on SK-MEL-2 melanoma it was 28.7 µM; in the assay on SK-MEL-28 melanoma, 25.9 µM; in the assay with SK-MEL-5 melanoma it was 31.1 µM; in the assay on SN12C renal, 71.4 µM. The TGI with T-47D breast was found to be 44.6 µM; in the assay with UACC-257 melanoma, 22.7 µM.

With `CCC(CCCCC1CC[C@H]2CC(=O)C[C@@H]12)OC` (stereo not given in full), the TGI was > 100 µM with DU-145 prostate; > 100 µM in the assay with HCC-2998 colon; > 100 µM with HOP-92 NSCLC; > 100 µM in the assay on HS 578T breast; > 100 µM in the assay with HT29 colon; 66.1 µM in the assay on K-562 leukemia. For the same compound, the TGI in the assay with MCF7 breast, with MDA-MB-231 breast, in the assay on OVCAR-3 ovarian, in the assay on OVCAR-5 ovarian, in the assay with OVCAR-8 ovarian and with PC-3 prostate was > 100 µM in each case. The TGI in the assay with SF-268 CNS, with SF-295 CNS, with SK-MEL-2 melanoma, in the assay on SK-MEL-28 melanoma, in the assay with SK-MEL-5 melanoma and in the assay on SN12C renal was > 100 µM in each case. Moreover, the TGI in the assay on T-47D breast and in the assay with UACC-257 melanoma was > 100 µM throughout.

For the compound `CO/N=C/c1c(-c2ccc(Cl)cc2)c(/C=N/OC)n2c1sc1ccccc12`, the TGI with DU-145 prostate, in the assay with HCC-2998 colon, in the assay on HOP-92 NSCLC, in the assay on HS 578T breast, with HT29 colon and with K-562 leukemia was > 100 µM in each case. Further, the TGI in the assay with MCF7 breast, in the assay on MDA-MB-231 breast, in the assay with OVCAR-3 ovarian, with OVCAR-5 ovarian, with OVCAR-8 ovarian and in the assay on PC-3 prostate was > 100 µM each time. Further, the TGI with SF-268 CNS, with SF-295 CNS, in the assay with SK-MEL-2 melanoma, with SK-MEL-28 melanoma, with SK-MEL-5 melanoma and in the assay on SN12C renal was > 100 µM each time. In addition, the TGI in the assay on T-47D breast and in the assay on UACC-257 melanoma was > 100 µM in each case.

As for `O=C1C(c2c(O)[nH]c3ccc(S(=O)(=O)N(CCO)CCO)cc23)=Nc2ccccc21`, the TGI was 72.3 µM with DU-145 prostate; > 100 µM in the assay with HCC-2998 colon; > 100 µM in the assay with HOP-92 NSCLC; > 100 µM in the assay with HS 578T breast; > 100 µM in the assay on HT29 colon; > 100 µM with K-562 leukemia. In addition, the TGI with MCF7 breast, in the assay with MDA-MB-231 breast, in the assay on OVCAR-3 ovarian, in the assay on OVCAR-5 ovarian, with OVCAR-8 ovarian and in the assay on PC-3 prostate was > 100 µM each time. Besides, the TGI in the assay with SF-268 CNS, with SF-295 CNS, in the assay on SK-MEL-2 melanoma, in the assay on SK-MEL-28 melanoma, in the assay with SK-MEL-5 melanoma and with SN12C renal was > 100 µM each time. Moreover, the TGI in the assay on T-47D breast is 20.3 µM; in the assay on UACC-257 melanoma, > 100 µM.

With `O=C1/C(=C/c2ccc(O)cc2)CCc2ccccc21`, the TGI turned out to be 64.9 µM with DU-145 prostate; 43.6 µM in the assay with HCC-2998 colon; 91.1 µM with HOP-92 NSCLC; 94.3 µM with HS 578T breast; 45 µM with HT29 colon; 81.3 µM in the assay with K-562 leukemia. Moreover, the TGI in the assay with MCF7 breast is 82.4 µM; with MDA-MB-231 breast it was 43.4 µM; in the assay with OVCAR-3 ovarian it was 52.7 µM; in the assay with OVCAR-5 ovarian, > 91 µM; with OVCAR-8 ovarian, 73.5 µM; in the assay with PC-3 prostate, 39.2 µM. Besides, the TGI in the assay on SF-268 CNS is 37.6 µM; with SF-295 CNS, > 63.7 µM; in the assay with SK-MEL-2 melanoma it was 36 µM; with SK-MEL-28 melanoma, 37 µM; with SK-MEL-5 melanoma, 32.5 µM; with SN12C renal, 38.1 µM. Also, the TGI in the assay on T-47D breast is > 100 µM; in the assay with UACC-257 melanoma it was 35.8 µM.

For the compound `Clc1ccc(-c2cc(-c3nc4ccccc4[nH]3)no2)cc1`, the TGI with DU-145 prostate worked out at 24.6 µM; with HCC-2998 colon, 33.5 µM; with HOP-92 NSCLC, 66.7 µM; with HS 578T breast, 79.7 µM; in the assay with HT29 colon, 35.3 µM; with K-562 leukemia, 50.2 µM. Moreover, the TGI in the assay on MCF7 breast was 31 µM; in the assay with MDA-MB-231 breast, 35.5 µM; with OVCAR-3 ovarian, 35.7 µM; in the assay with OVCAR-5 ovarian, 40.8 µM; in the assay with OVCAR-8 ovarian it was 67.4 µM; in the assay with PC-3 prostate, 48.4 µM. The TGI with SF-268 CNS is 45.9 µM; with SF-295 CNS, 33 µM; in the assay with SK-MEL-2 melanoma, 34.7 µM; with SK-MEL-28 melanoma, 40.5 µM; in the assay with SK-MEL-5 melanoma, 34.7 µM; with SN12C renal, 35 µM. The figures for the TGI in the assay on T-47D breast and with UACC-257 melanoma were 37.7 µM and 36.4 µM, respectively.

On to `Cc1ccc2cccc(OC(=O)c3cc4c(cc3Cl)Sc3nccn3S4(=O)=O)c2n1`, for which the TGI in the assay with DU-145 prostate is 18.1 µM; with HCC-2998 colon, 13.1 µM; in the assay on HOP-92 NSCLC, 68 µM; in the assay on HS 578T breast, > 100 µM; in the assay with HT29 colon, 44.5 µM; with K-562 leukemia it was 23.9 µM. For the same compound, the TGI is 18.4 µM in the assay on MCF7 breast; 29.3 µM in the assay on MDA-MB-231 breast; 11.6 µM with OVCAR-3 ovarian; > 61.2 µM with OVCAR-5 ovarian; 28.8 µM in the assay with OVCAR-8 ovarian; 14.7 µM in the assay with PC-3 prostate. The TGI with SF-268 CNS was > 100 µM; in the assay with SF-295 CNS, 29.7 µM; in the assay with SK-MEL-2 melanoma it was 27.1 µM; with SK-MEL-28 melanoma, 30.8 µM; in the assay with SK-MEL-5 melanoma, 27 µM; with SN12C renal it was > 100 µM. For the same compound, the TGI with T-47D breast turned out to be 13 µM; in the assay on UACC-257 melanoma, 25.4 µM.
